Laboratory results: US20250297152A1, “FLUORINATED SUBSTITUTED OLEFIN REFRIGERANTS AND METHODS OF COOLING ELECTRONICS” (Honeywell International Inc., priority 2024, published 2025)

How the values were obtained:
[1] = format: physicochemical; conditions: for BP: Table E1
Method: (§1) The boiling point (“BP”) and dielectric constant (“Dk”) of trans- and cis-secBuFO and trans- and cis-tBuFO were determined and the results are reported below in Table E1. The dielectric property of each of trans- and cis-secBuFO and trans- and cis-tBuFO was determined using the Agilent 85070 Dielectric Probe. All measurements were made at ambient pressure and room temperature (approximately 23° C.). Prior to making measurements, the system was calibrated from 1 GHz to 20 GHz with an open circuit, a short circuit, and DI water (@22.4° C.) standard. The result of the calibration is shown in the Table E1 below for DI H2O, and is consistent with DI water at 22.4° C. The accuracy of the probe is given as: Dielectric constant, er′=er′+/−0.05|er*| with er″=er″+/−0.05|er*| and (loss=er″/er′).

[2] = Dielectric constant (Agilent 85070 Dielectric Probe; ASTM D150-11); format: physicochemical; conditions: for Dielectric Constant (20 GHz): Table 3, values understood as 'about'; for Calculated Dk at 20 GHz: Table E1, ambient pressure, room temperature (approximately 23° C.)
Method: “Dielectric Constant” means the dielectric constant as measured in accordance with ASTM D150-11 at room temperature at 20 giga hertz (GHz).
as §1

[3] = Toxicological screening study: in vivo acute oral toxicity and 4-hour acute inhalation toxicity; conditions: acute oral 2,000 mg/kg/day; 4-hour acute inhalation at 18,375 ppm
Method: “Acceptable toxicity” means a fluid that has toxicity within acceptable limits. This is experimentally determined by a toxicological screening study to assess in vivo acute oral toxicity at a dosage of 2,000 mg/kg/day and 4-hour acute inhalation toxicity at a concentration of about 20,000 ppm.
A fluid including the trans isomer of the SecBuFO refrigerant was subjected experimentally a toxicological screening study to assess in vivo acute oral toxicity at a dosage of 2,000 mg/kg/day and 4-hour acute inhalation toxicity at a concentration of 18,375 ppm.

Structure (SMILES) | Boiling point [1] | BP [1] | Dielectric Constant (20 GHz) [2] | Calculated Dk at 20 GHz [2] | toxicology screening study outcome [3]
F/C=C/C(C(F)(F)F)(C(F)(F)F)C(F)(F)F [trans-tBuFO, trans-1,4,4,4-tetrafluoro-3,3-bis(trifluoromethyl)but-1-ene] | 57.9 °C | 57.9 °C | 2.15 | 2.15 | 
F/C=C\C(C(F)(F)F)(C(F)(F)F)C(F)(F)F [cis-tBuFO, cis-1,4,4,4-tetrafluoro-3,3-bis(trifluoromethyl)but-1-ene] | 76.19 °C | 76.19 °C | 6.51 | 6.51 | 
F/C=C/C(F)(C(F)(F)F)C(F)(F)C(F)(F)F (stereo not drawn) [trans-secBuFO, trans-1,3,4,4,5,5,5-heptafluoro-3-(trifluoromethyl)pent-1-ene] | 55.5-55.9 °C | 55.5-55.9 °C | 2.11 | 2.11 | passed
F/C=C\C(F)(C(F)(F)F)C(F)(F)C(F)(F)F (stereo not drawn) [cis-secBuFO, cis-1,3,4,4,5,5,5-heptafluoro-3-(trifluoromethyl)pent-1-ene] | 79.27 °C | 79.27 °C | 6.48 | 6.48 | 
